In one test the test system is Candida. As to the kind of experiment: Antimicrobial activity against Candida mycoderma ATCC 9888 after 24 hrs by microbroth dilution method. It is filed as functional. To be noted: ATCC 9888, 24 h.
A further test concerns Bacillus spizizenii. As to the kind of experiment: Antimicrobial activity against Bacillus subtilis ATCC 6633 after 24 hrs by microbroth dilution method. It is filed as functional. To be noted: ATCC 6633, 24 h.
Test [1] relates to Staphylococcus aureus. Nature of the test: Antimicrobial activity against methicillin-resistant Staphylococcus aureus N315 after 24 hrs by microbroth dilution method. It is filed as functional. To be noted: N315, 24 h.
For test [2], the system named is Saccharomyces cerevisiae. Nature of the test: Antimicrobial activity against Saccharomyces cerevisiae after 24 hrs by microbroth dilution method. It is filed as functional.
Test [3] deals with Saccharomyces cerevisiae. Nature of the test: Potency index, ratio of fluconazole MIC to compound MIC for antimicrobial activity against Saccharomyces cerevisiae. It is filed as functional.
For a further test, the system named is Salmonella typhi. Nature of the test: Antimicrobial activity against Bacillus typhi after 24 hrs by microbroth dilution method. It is filed as functional, Salmonella enterica subsp. enterica serovar Typhi. To be noted: Salmonella enterica.
The test system of a further test is Aspergillus flavus. Nature of the test: Antimicrobial activity against Aspergillus flavus ATCC 204304 after 24 hrs by microbroth dilution method. To be noted: ATCC 204304, 24 h. It is filed as functional.
The test system of test [4] is Staphylococcus aureus. Nature of the test: Potency index, ratio of chloromycin MIC to compound MIC for antimicrobial activity against methicillin-resistant Staphylococcus aureus N315. It is filed as functional.
The subject of test [5] is Calf thymus DNA. As to the kind of experiment: Binding affinity to calf thymus DNA assessed as compound-DNA complex formation by UV-visible spectroscopy. The test is classed as nucleic-acid assay. The conditions noted are these: Bos taurus.
Test [6] has as its system Staphylococcus aureus. Nature of the test: Potency index, ratio of norfloxacin MIC to compound MIC for antimicrobial activity against methicillin-resistant Staphylococcus aureus N315. The test is classed as functional.
For test [7], the system named is Calf thymus DNA. Nature of the test: Competitive binding affinity to calf thymus DNA assessed as compound-DNA complex formation at 0.74 to 2.18x10'-5 mol/l by UV-visible spectroscopy in presence of neutral red dye. It is filed as nucleic-acid assay. To be noted: Bos taurus.
The nature of test [8]: Antimicrobial activity against Bacillus proteus ATCC 13315 after 24 hrs by microbroth dilution method. The test is classed as functional. The conditions noted are these: ATCC 13315, 24 h.
Test [9] deals with Escherichia coli. Nature of the test: Antimicrobial activity against Escherichia coli DH52 after 24 hrs by microbroth dilution method. It is filed as functional. To be noted: DH52, 24 h.
Test [10] relates to Calf thymus DNA. As to the kind of experiment: Binding affinity to calf thymus DNA assessed as compound-DNA complex formation by fluorescence analysis in presence of quencher potassium iodide. To be noted: Bos taurus. The test is classed as nucleic-acid assay.
Another test has as its system Candida albicans. Nature of the test: Antimicrobial activity against Candida albicans ATCC 10231 after 24 hrs by microbroth dilution method. The test is classed as functional. The conditions noted are these: ATCC 10231, 24 h.
Test [11] relates to Staphylococcus aureus. As to the kind of experiment: Antimicrobial activity against Staphylococcus aureus ATCC 25923 after 24 hrs by microbroth dilution method. The test is classed as functional. The conditions noted are these: ATCC 25923, 24 h.
For test [12], the system named is Escherichia coli. Nature of the test: Antimicrobial activity against Escherichia coli JM109 after 24 hrs by microbroth dilution method. The conditions noted are these: JM109, 24 h. It is filed as functional.
Another test deals with Micrococcus luteus. As to the kind of experiment: Antimicrobial activity against Micrococcus luteus ATCC 4698 after 24 hrs by microbroth dilution method. The test is classed as functional. To be noted: ATCC 4698, 24 h.
The test system of test [13] is Calf thymus DNA. Nature of the test: Binding affinity to calf thymus DNA assessed as compound-DNA complex formation at 4.87x10'-5 mol/l by fluorescence analysis. The test is classed as nucleic-acid assay. The conditions noted are these: Bos taurus.
The test system of another test is Bacillus. As to the kind of experiment: Potency index, ratio of norfloxacin MIC to compound MIC for antimicrobial activity against Bacillus proteus ATCC 13315. The test is classed as functional.
Test [14] deals with Escherichia coli. Nature of the test: Potency index, ratio of chloromycin MIC to compound MIC for antimicrobial activity against Escherichia coli DH52. The test is classed as functional.

Results on six compounds are retold here after ChEMBL document CHEMBL3808392, “Design, synthesis and biological evaluation of 5-fluorouracil-derived benzimidazoles as novel type of potential antimicrobial agents” (2016).

≈ marks a conversion by molar mass, not a printed value. Calls of active or inactive are those of the source. No cut-off for these calls is given here.

In the case of `O=c1c(F)cn(Cc2nc3ccccc3n2Cc2cccc(F)c2)c(=O)n1Cc1cccc(F)c1`, the MIC in the test on Candida came to 32 µg/mL (≈ 67.2 µM); against Bacillus spizizenii, 16 µg/mL (≈ 33.6 µM); with Staphylococcus aureus [1], 2 µg/mL (≈ 4.2 µM); against Saccharomyces cerevisiae [2], 1 µg/mL (≈ 2.1 µM); against Salmonella typhi, 8 µg/mL (≈ 16.8 µM); against Aspergillus flavus it was 8 µg/mL (≈ 16.8 µM). In addition, the MIC worked out at 4 µg/mL (≈ 8.4 µM) in test [8]; 2 µg/mL (≈ 4.2 µM) against Escherichia coli [9]; 32 µg/mL (≈ 67.2 µM) with Candida albicans; 4 µg/mL (≈ 8.4 µM) in the test with Staphylococcus aureus [11]; 8 µg/mL (≈ 16.8 µM) against Escherichia coli [12]; 64 µg/mL (≈ 134 µM) in the test on Micrococcus luteus. In addition, the Ratio in the test on Saccharomyces cerevisiae [3] was 16; with Staphylococcus aureus [4], 8; in the test with Staphylococcus aureus [6] it was 4. For the same compound, in the test with Calf thymus DNA [5], the K came out at 3.89 ×10⁴ L/mol. Also, the result with Calf thymus DNA [7] and with Calf thymus DNA [13] was Active. Further, in the test on Calf thymus DNA [10], the KSV was determined as 6.45 L/mol.
In the case of `O=c1[nH]c(=O)n(Cc2nc3ccccc3n2Cc2cccc(F)c2)cc1F`, the MIC against Candida is 16 µg/mL (≈ 43.4 µM); against Bacillus spizizenii, 8 µg/mL (≈ 21.7 µM); with Staphylococcus aureus [1], 64 µg/mL (≈ 174 µM); in the test on Saccharomyces cerevisiae [2], 4 µg/mL (≈ 10.9 µM); in the test with Salmonella typhi it was 128 µg/mL (≈ 348 µM); in the test with Aspergillus flavus it was 32 µg/mL (≈ 86.9 µM). Besides, the MIC in [8] amounted to 2 µg/mL (≈ 5.43 µM); against Escherichia coli [9] it was 2 µg/mL (≈ 5.43 µM); in the test with Candida albicans, 16 µg/mL (≈ 43.4 µM); with Staphylococcus aureus [11], 4 µg/mL (≈ 10.9 µM); against Escherichia coli [12], 64 µg/mL (≈ 174 µM); against Micrococcus luteus, 16 µg/mL (≈ 43.4 µM). In the test with Bacillus, the Ratio came out at 4.
With `CCn1c(Cn2cc(F)c(=O)[nH]c2=O)nc2ccccc21`, the MIC was 16 µg/mL (≈ 55.5 µM) against Candida; 64 µg/mL (≈ 222 µM) in the test with Bacillus spizizenii; 16 µg/mL (≈ 55.5 µM) against Staphylococcus aureus [1]; 4 µg/mL (≈ 13.9 µM) against Saccharomyces cerevisiae [2]; 32 µg/mL (≈ 111 µM) against Salmonella typhi; 32 µg/mL (≈ 111 µM) in the test on Aspergillus flavus. Also, the MIC in [8] is 32 µg/mL (≈ 111 µM); with Escherichia coli [9], 8 µg/mL (≈ 27.8 µM); against Candida albicans it was 2 µg/mL (≈ 6.94 µM); against Staphylococcus aureus [11], 16 µg/mL (≈ 55.5 µM); against Escherichia coli [12], 64 µg/mL (≈ 222 µM); in the test on Micrococcus luteus, 16 µg/mL (≈ 55.5 µM). The Ratio in the test on Escherichia coli [14] came to 4.
As to `O=c1c(F)cn(Cc2nc3ccccc3n2Cc2ccc(Cl)cc2)c(=O)n1Cc1ccc(Cl)cc1`, the MIC in the test on Candida is more than 512 µg/mL; in the test on Bacillus spizizenii it was more than 512 µg/mL; against Staphylococcus aureus [1], more than 512 µg/mL; against Saccharomyces cerevisiae [2], more than 512 µg/mL; in the test with Salmonella typhi, 512 µg/mL (≈ 1010 µM); in the test with Aspergillus flavus it was more than 512 µg/mL. In addition, the MIC in [8] is more than 512 µg/mL; with Escherichia coli [9] it was more than 512 µg/mL; in the test with Candida albicans, 4 µg/mL (≈ 7.85 µM); against Staphylococcus aureus [11], more than 512 µg/mL; in the test on Escherichia coli [12] it was more than 512 µg/mL; in the test with Micrococcus luteus, more than 512 µg/mL.
Regarding `O=c1[nH]c(=O)n(Cc2nc3cc(F)ccc3[nH]2)cc1F`, the MIC against Candida came out at 128 µg/mL (≈ 460 µM); against Bacillus spizizenii, 128 µg/mL (≈ 460 µM); in the test on Staphylococcus aureus [1], 16 µg/mL (≈ 57.5 µM); against Saccharomyces cerevisiae [2], 8 µg/mL (≈ 28.8 µM); with Salmonella typhi, 32 µg/mL (≈ 115 µM); with Aspergillus flavus it was 128 µg/mL (≈ 460 µM). The MIC in [8] stood at 16 µg/mL (≈ 57.5 µM); against Escherichia coli [9], 32 µg/mL (≈ 115 µM); in the test on Candida albicans, 2 µg/mL (≈ 7.19 µM); against Staphylococcus aureus [11], 8 µg/mL (≈ 28.8 µM); against Escherichia coli [12], 128 µg/mL (≈ 460 µM); against Micrococcus luteus, 16 µg/mL (≈ 57.5 µM).
Regarding `O=c1c(F)cn(Cc2nc3ccccc3n2Cc2ccc([N+](=O)[O-])cc2)c(=O)n1Cc1ccc([N+](=O)[O-])cc1`, the MIC in the test with Candida is more than 512 µg/mL; in the test with Bacillus spizizenii, 32 µg/mL (≈ 60.3 µM); with Staphylococcus aureus [1], more than 512 µg/mL; in the test with Saccharomyces cerevisiae [2] it was more than 512 µg/mL; in the test on Salmonella typhi it was 32 µg/mL (≈ 60.3 µM); with Aspergillus flavus it was more than 512 µg/mL. Further, the MIC (in test [8]; in the test with Escherichia coli [9]; in the test on Candida albicans; in the test with Staphylococcus aureus [11]; with Escherichia coli [12]; against Micrococcus luteus) was more than 512 µg/mL in each case.
